According to patent US11814367B2, “Inhibitors of glycogen synthase 1 (GYS1) and methods of use thereof” (Maze Therapeutics, Inc., priority 2021, dated 2023):

How the values were obtained:
[1] = tested on: hGYS1 enzyme / glycogen synthesis in HeLa cells; assay: GYS1 cell based assay (glycogen synthesis, Glucose-glo); parameters: species or system human; conditions: Homo sapiens, HeLa, 24 h, 24 h incubation, 20 mM glucose, geometric mean of at least 2 runs
In short: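 HeLa cells starved 24 h in medium containing only 1× Glutamax were plated onto compound in medium with 20 mM glucose (1% DMSO final) for 24 h, 37 °C, 5% CO2. Acid lysates were Tris-quenched, glucoamylase-digested (pH 5.3, 1 h, 37 °C) and read by Glucose-glo luminescence. IC50 came from Hill fits, as geometric mean of ≥2 runs.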

[2] = target: hGYS1 enzyme (recombinant hGYS1/GN1 protein) (Homo sapiens (Human), UniProt P13807); assay: GYS1 coupled enzyme assay (PK/LDH); format: biochemical; conditions: hGYS1/GN1 50 nM, UDP-Glucose 0.8 mM, G6P 1 mM; geometric mean of at least 2 runs
[3] = target: hGYS2 enzyme (recombinant hGYS2/GN1 protein) (Homo sapiens (Human), UniProt P54840); assay: GYS2 coupled enzyme assay (PK/LDH); format: biochemical; conditions: geometric mean of at least 2 assay runs on separate days, read-out: Avg_IC50
In short: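 Recombinant hGYS2/GN1 (200 nM) with 2 mM UDP-glucose, 0.2% rabbit liver glycogen, 2 mM glucose-6-phosphate; UDP coupled via PK/LDH (2 mM PEP, 0.6 mM NADH). Buffer 50 mM Tris pH 7.5, 2 mM MgCl2, 100 mM KCl, 2.5% DMSO. A340 slope over 10 min; IC50 from Hill fit of duplicates.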

Chain of hGYS2 enzyme (recombinant hGYS2/GN1 protein) (P54840 whole entry): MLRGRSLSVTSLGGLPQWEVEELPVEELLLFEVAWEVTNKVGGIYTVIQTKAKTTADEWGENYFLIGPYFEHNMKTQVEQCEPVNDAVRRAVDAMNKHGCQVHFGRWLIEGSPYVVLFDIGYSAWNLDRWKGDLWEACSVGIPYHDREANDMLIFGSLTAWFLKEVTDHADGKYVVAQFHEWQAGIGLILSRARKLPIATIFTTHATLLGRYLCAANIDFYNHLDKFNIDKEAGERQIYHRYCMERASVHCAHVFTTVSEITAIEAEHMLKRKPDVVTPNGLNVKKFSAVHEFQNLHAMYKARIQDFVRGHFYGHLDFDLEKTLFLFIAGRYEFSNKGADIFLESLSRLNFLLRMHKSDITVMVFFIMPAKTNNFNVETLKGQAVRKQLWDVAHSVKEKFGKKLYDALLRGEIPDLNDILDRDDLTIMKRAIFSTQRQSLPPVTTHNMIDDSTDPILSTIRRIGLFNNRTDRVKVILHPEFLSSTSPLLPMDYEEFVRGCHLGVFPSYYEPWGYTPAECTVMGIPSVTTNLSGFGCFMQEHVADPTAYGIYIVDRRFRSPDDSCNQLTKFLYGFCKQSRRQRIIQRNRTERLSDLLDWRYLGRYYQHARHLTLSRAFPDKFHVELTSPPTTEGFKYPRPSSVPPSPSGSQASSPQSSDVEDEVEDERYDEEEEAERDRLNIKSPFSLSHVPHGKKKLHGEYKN
Chain of hGYS2 enzyme (recombinant hGYS2/GN1 protein) (P46976 whole entry partner): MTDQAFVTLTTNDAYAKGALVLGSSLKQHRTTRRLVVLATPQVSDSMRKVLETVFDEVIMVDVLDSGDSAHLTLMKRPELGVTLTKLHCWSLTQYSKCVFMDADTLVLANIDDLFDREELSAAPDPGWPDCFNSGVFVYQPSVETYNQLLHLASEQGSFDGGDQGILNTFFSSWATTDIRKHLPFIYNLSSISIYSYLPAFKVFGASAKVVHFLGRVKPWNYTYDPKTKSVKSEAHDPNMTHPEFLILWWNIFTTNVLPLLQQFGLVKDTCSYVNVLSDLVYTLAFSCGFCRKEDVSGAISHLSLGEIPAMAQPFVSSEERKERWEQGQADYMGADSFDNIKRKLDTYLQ
Chain of hGYS1 enzyme (recombinant hGYS1/GN1 protein) (P13807 whole entry): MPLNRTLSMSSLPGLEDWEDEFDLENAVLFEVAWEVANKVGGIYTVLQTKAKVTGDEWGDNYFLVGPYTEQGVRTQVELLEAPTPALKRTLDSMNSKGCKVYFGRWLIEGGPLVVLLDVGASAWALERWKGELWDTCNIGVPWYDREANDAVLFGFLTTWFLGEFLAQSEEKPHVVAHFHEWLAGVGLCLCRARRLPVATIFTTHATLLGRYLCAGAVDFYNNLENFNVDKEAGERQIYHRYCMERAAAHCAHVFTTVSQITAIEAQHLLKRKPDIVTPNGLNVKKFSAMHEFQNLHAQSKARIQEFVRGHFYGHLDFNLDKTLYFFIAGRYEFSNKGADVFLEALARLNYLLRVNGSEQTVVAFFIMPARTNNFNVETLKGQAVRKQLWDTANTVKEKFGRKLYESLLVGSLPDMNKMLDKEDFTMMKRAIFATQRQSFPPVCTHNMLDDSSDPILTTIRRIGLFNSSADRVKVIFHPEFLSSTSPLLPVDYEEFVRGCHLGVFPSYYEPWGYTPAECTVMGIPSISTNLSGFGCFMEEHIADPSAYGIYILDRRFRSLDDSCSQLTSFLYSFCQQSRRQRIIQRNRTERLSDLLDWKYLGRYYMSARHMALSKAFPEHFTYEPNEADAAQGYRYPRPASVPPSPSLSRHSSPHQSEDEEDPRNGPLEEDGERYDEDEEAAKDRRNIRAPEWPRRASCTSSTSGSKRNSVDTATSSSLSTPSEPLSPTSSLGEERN
Chain of hGYS1 enzyme (recombinant hGYS1/GN1 protein) (P46976 whole entry partner): as the sequence (P46976 whole entry partner) above

O=C(N[C@@H](c1ccccc1)c1ccc(C2CC2)c(F)c1)[C@@H]1C[C@@H](F)CN1C(=O)Cn1cnnc1 [Compound 481, (2S,4R)-N-[(S)-(4-cyclopropyl-3-fluorophenyl)(phenyl)methyl]-4-fluoro-1-[2-(4H-1,2,4-triazol-4-yl)acetyl]pyrrolidine-2-carboxamide] was tested. Which IC50 [1] did it give?
Its IC50 is 7770 nM.

What about the IC50 [2] of the same compound?
Its IC50 is 247 nM.

What about the IC50 [3] of the same compound?
Its IC50 is greater than 100000 nM.

For CC(C)c1ccc([C@@H](NC(=O)[C@@H]2C[C@@H](F)CN2C(=O)CNC(N)=O)c2ccccc2)nc1 [Compound 262, (2S,4R)-1-[2-(carbamoylamino)acetyl]-4-fluoro-N-[(S)-phenyl[5-(propan-2-yl)pyridin-2-yl]methyl]pyrrolidine-2-carboxamide], which IC50 [1] is on record?
Its IC50 is 3630 nM.

What about the IC50 [2] of the same compound?
Its IC50 is 62 nM.

And the IC50 [3]?
Its IC50 is greater than 100000 nM.

Which IC50 [1] does the source give for O=C(N[C@@H](c1ccccc1)c1ccc(C2CC2)c(F)n1)[C@@H]1C[C@@H](F)CN1C(=O)Cn1ncc(N2CCC2)n1 [Compound 317, (2S,4R)-1-{2-[4-(azetidin-1-yl)-2H-1,2,3-triazol-2-yl]acetyl}-N-[(S)-(5-cyclopropyl-6-fluoropyridin-2-yl)(phenyl)methyl]-4-fluoropyrrolidine-2-carboxamide] here?
Its IC50 is 390 nM.

What about the IC50 [2] of the same compound?
Its IC50 is 17 nM.

And the IC50 [3]?
Its IC50 is greater than 100000 nM.

Which IC50 [1] does the source give for CC(C)c1ccc(C(NC(=O)[C@@H]2C[C@@H](F)CN2C(=O)Cc2cnn[nH]2)c2ccn3cncc3c2)nc1F (single isomer, unassigned) [Compound 631, (2S,4R)-4-fluoro-N-[(S) or (R)-[6-fluoro-5-(propan-2-yl)pyridin-2-yl]({imidazo[1,5-a]pyridin-7-yl})methyl]-1-[2-(1H-1,2,3-triazol-5-yl)acetyl]pyrrolidine-2-carboxamide] here?
The IC50 was 13600 nM.

What about the IC50 [2] of the same compound?
Its IC50 is 176 nM.

And the IC50 [3]?
The IC50 was greater than 100000 nM.

Which IC50 [1] does the source give for O=C(N[C@@H](c1ccccc1)c1ccc(C2CC2)c(F)c1)[C@@H]1C[C@@H](F)CN1C(=O)Cn1cnnn1 [Compound 431, (2S,4R)-N-[(S)-(4-cyclopropyl-3-fluorophenyl)(phenyl)methyl]-4-fluoro-1-[2-(1H-1,2,3,4-tetrazol-1-yl)acetyl]pyrrolidine-2-carboxamide] here?
The IC50 was 3350 nM.

And the IC50 [2]?
Its IC50 is 221 nM.

And the IC50 [3]?
The IC50 was greater than 100000 nM.

CCN(CC)c1cnn(CC(=O)N2C[C@H](F)C[C@H]2C(=O)N[C@@H](c2ccccc2)c2ccc(C(C)C)c(F)n2)n1 [Compound 414] was tested. Which IC50 [1] did it give?
Its IC50 is 60 nM.

And the IC50 [2]?
The IC50 was 3 nM.

What about the IC50 [3] of the same compound?
The IC50 was 78700 nM.

CCn1ncc(N(C)CC(=O)N2C[C@H](F)C[C@H]2C(=O)N[C@@H](c2ccccc2)c2ccc(C3CC3)c(F)c2)n1 [Compound 474, (2S,4R)-N-[(S)-(4-cyclopropyl-3-fluorophenyl)(phenyl)methyl]-1-{2-[(2-ethyl-2H-1,2,3-triazol-4-yl)(methyl)amino]acetyl}-4-fluoropyrrolidine-2-carboxamide] was tested. Which IC50 [1] did it give?
The IC50 was 880 nM.

What about the IC50 [2] of the same compound?
The IC50 was 43 nM.

And the IC50 [3]?
The IC50 was greater than 100000 nM.

Which IC50 [1] does the source give for CC(C)c1ccc([C@@H](NC(=O)[C@@H]2C[C@@H](F)CN2C(=O)Cc2nn(C)c(=O)o2)c2ccccc2)nc1 [Compound 266, (2S,4R)-4-fluoro-1-[2-(4-methyl-5-oxo-4,5-dihydro-1,3,4-oxadiazol-2-yl)acetyl]-N-[(S)-phenyl[5-(propan-2-yl)pyridin-2-yl]methyl]pyrrolidine-2-carboxamide] here?
Its IC50 is 1220 nM.

What about the IC50 [2] of the same compound?
The IC50 was 89 nM.

And the IC50 [3]?
The IC50 was greater than 100000 nM.

How did the IC50 [1] turn out when O=C(N[C@@H](c1ccccc1)c1ccc(C2CC2)c(F)n1)[C@@H]1C[C@@H](F)CN1C(=O)Cn1cccn1 [Compound 723, (2S,4R)-N-[(S)-(5-cyclopropyl-6-fluoropyridin-2-yl)(phenyl)methyl]-4-fluoro-1-[2-(1H-pyrazol-1-yl)acetyl]pyrrolidine-2-carboxamide] was run?
Its IC50 is 720 nM.

And the IC50 [2]?
Its IC50 is 46 nM.

What about the IC50 [3] of the same compound?
The IC50 was greater than 100000 nM.

What does the source list for CC1(c2ccc([C@@H](NC(=O)[C@@H]3C[C@@H](F)CN3C(=O)Cn3cnnc3)c3ccccc3)cc2F)CC1 [Compound 582, (2S,4R)-4-fluoro-N-[(S)-[3-fluoro-4-(1-methylcyclopropyl)phenyl](phenyl)methyl]-1-[2-(4H-1,2,4-triazol-4-yl)acetyl]pyrrolidine-2-carboxamide]?
IC50 [1]: 8080 nM; IC50 [2]: 319 nM; IC50 [3]: > 100000 nM

What does the source list for Cn1c(=O)n(CC(=O)N2C[C@H](F)C[C@H]2C(=O)N[C@@H](c2ccccc2)c2ccc(C3CC3)c(F)c2)c2ccccc21 [Compound 457, (2S,4R)-N-[(S)-(4-cyclopropyl-3-fluorophenyl)(phenyl)methyl]-4-fluoro-1-[2-(3-methyl-2-oxo-2,3-dihydro-1H-1,3-benzodiazol-1-yl)acetyl] pyrrolidine-2-carboxamide]?
IC50 [1]: 720 nM; IC50 [2]: 32 nM; IC50 [3]: > 100000 nM

What does the source list for CC1(c2ccc([C@@H](NC(=O)[C@@H]3C[C@@H](F)CN3C(=O)CN3C(=O)Cc4ccccc43)c3ccccc3)cc2F)CC1 [Compound 576, (2S,4R)-4-fluoro-N-[(S)-[3-fluoro-4-(1-methylcyclopropyl)phenyl](phenyl)methyl]-1-[2-(2-oxo-2,3-dihydro-1H-indol-1-yl)acetyl]pyrrolidine-2-carboxamide]?
IC50 [1]: 1800 nM; IC50 [2]: 85 nM; IC50 [3]: > 100000 nM

CC(C)c1ccc([C@@H](NC(=O)[C@@H]2C[C@@H](F)CN2C(=O)Cc2cn(C)nn2)c2ccccc2)cc1F [Compound 336] was tested. Which IC50 [1] did it give?
Its IC50 is 280 nM.

And the IC50 [2]?
Its IC50 is 15 nM.

And the IC50 [3]?
Its IC50 is greater than 100000 nM.

How did the IC50 [1] turn out when CC1(c2ccc([C@@H](NC(=O)[C@@H]3C[C@@H](F)CN3C(=O)CNC(=O)N3CCOCC3)c3ccccc3)nc2F)CC1 [Compound 589, N-{2-[(2S,4R)-4-fluoro-2-{[(S)-[6-fluoro-5-(1-methylcyclopropyl)pyridin-2-yl](phenyl)methyl]carbamoyl}pyrrolidin-1-yl]-2-oxoethyl} morpholine-4-carboxamide] was run?
Its IC50 is 1420 nM.

And the IC50 [2]?
The IC50 was 101 nM.

And the IC50 [3]?
The IC50 was greater than 100000 nM.

What does the source list for Cc1nc2ccccc2n1CC(=O)N1C[C@H](F)C[C@H]1C(=O)N[C@@H](c1ccccc1)c1ccc(C2(C)CC2)c(F)c1 [Compound 566, (2S,4R)-4-fluoro-N-[(S)-[3-fluoro-4-(1-methylcyclopropyl)phenyl](phenyl)methyl]-1-[2-(2-methyl-1H-1,3-benzodiazol-1-yl)acetyl]pyrrolidine-2-carboxamide]?
IC50 [1]: 770 nM; IC50 [2]: 46 nM; IC50 [3]: > 100000 nM

How did the IC50 [1] turn out when CC(C)c1ccc([C@@H](NC(=O)[C@@H]2C[C@@H](F)CN2C(=O)COC(=O)N2CCNCC2)c2ccccc2)cc1F [Compound 363, 2-[(2S,4R)-4-fluoro-2-{[(S)-[3-fluoro-4-(propan-2-yl)phenyl](phenyl)methyl]carbamoyl}pyrrolidin-1-yl]-2-oxoethyl piperazine-1-carboxylate] was run?
Its IC50 is 320 nM.

What about the IC50 [2] of the same compound?
The IC50 was 19 nM.

And the IC50 [3]?
Its IC50 is greater than 100000 nM.

Which IC50 [1] does the source give for O=C(N[C@@H](c1ccccc1)c1ccc(C2CC(F)(F)C2)c(F)n1)[C@@H]1C[C@@H](F)CN1C(=O)CNC(=O)N1CCC1 [Compound 503, (2S,4R)-1-{2-[(azetidine-1-carbonyl)amino]acetyl}-N-[(S)-[5-(3,3-difluorocyclobutyl)-6-fluoropyridin-2-yl](phenyl)methyl]-4-fluoropyrrolidine-2-carboxamide] here?
The IC50 was 240 nM.

What about the IC50 [2] of the same compound?
The IC50 was 8 nM.

What about the IC50 [3] of the same compound?
Its IC50 is greater than 100000 nM.

How did the IC50 [1] turn out when CC(C)c1ccc([C@@H](NC(=O)[C@@H]2C[C@@H](F)CN2C(=O)Cn2cccn2)c2ccccc2)nc1F [Compound 781, (2S,4R)-4-fluoro-N-[(S)-[6-fluoro-5-(propan-2-yl)pyridin-2-yl](phenyl)methyl]-1-[2-(1H-pyrazol-1-yl)acetyl]pyrrolidine-2-carboxamide] was run?
The IC50 was 270 nM.

And the IC50 [2]?
The IC50 was 11 nM.

And the IC50 [3]?
The IC50 was greater than 100000 nM.

What does the source list for CC(C)c1ccc([C@@H](NC(=O)[C@@H]2C[C@@H](F)CN2C(=O)Cc2cnn[nH]2)c2ccccc2)cc1 [Compound 1, (2S,4R)-1-(2-(1H-1,2,3-triazol-5-yl)acetyl)-4-fluoro-N-((S)-(4-isopropylphenyl)(phenyl)methyl) pyrrolidine-2-carboxamide]?
IC50 [1]: 420 nM; IC50 [2]: 33 nM; IC50 [3]: > 100000 nM

With CC(=O)N1CCC2(CCC(C(=O)N3C[C@H](F)C[C@H]3C(=O)N[C@@H](c3ccccc3)c3ccc(C(C)C)cc3)C2)CC1 (stereo partly drawn) [Compound 184, (2S,4R)-1-{8-acetyl-8-azaspiro[4.5]decane-2-carbonyl}-4-fluoro-N-[(S)-phenyl[4-(propan-2-yl)phenyl]methyl]pyrrolidine-2-carboxamide] as the compound, how does the IC50 [1] read?
Its IC50 is 3030 nM.

And the IC50 [2]?
The IC50 was 75 nM.

And the IC50 [3]?
Its IC50 is greater than 100000 nM.

For CC(C)c1ccc([C@@H](NC(=O)[C@@H]2C[C@@H](F)CN2C(=O)Cc2ccncc2)c2ccccc2)cc1F [Compound 347, (2S,4R)-4-fluoro-N-[(S)-[3-fluoro-4-(propan-2-yl)phenyl](phenyl)methyl]-1-[2-(pyridin-4-yl)acetyl]pyrrolidine-2-carboxamide], which IC50 [1] is on record?
Its IC50 is 400 nM.

And the IC50 [2]?
Its IC50 is 30 nM.

And the IC50 [3]?
Its IC50 is greater than 100000 nM.

Which results are given for CC(C)c1c(F)cc(C(NC(=O)[C@@H]2C[C@@H](F)CN2C(=O)Cc2cnn[nH]2)c2ccccc2)cc1F (single isomer, unassigned) [Compound 667, (2S,4R)-N-[(S) or (R)-[3,5-difluoro-4-(propan-2-yl)phenyl](phenyl)methyl]-4-fluoro-1-[2-(1H-1,2,3-triazol-5-yl)acetyl]pyrrolidine-2-carboxamide]?
IC50 [1]: 290 nM; IC50 [2]: 23 nM; IC50 [3]: > 100000 nM
